In patent publication US20250276116A1, “METHODS OF […] DUE TO EXTR[…] OXYGENATION” (Tufts Medical Center, Inc., priority 2021, published 2025):
Entries after “also recorded” stand apart in the source; their conditions may differ.

Legend:
[1] = system: LV infarct scar after AMI; assay: Late-term outcomes in swine 28 days after AMI with VA-ECMO, with or without cardioprotective drug; type: in vivo; details: at 30 days; VA-ECMO + elamipretide vs reperfusion alone or VA-ECMO alone before reperfusion; FIG. 6
Procedure: To explore late-term outcomes after VA-ECMO with or without cardioprotective drug therapy in AMI, we decannulated, recovered, and monitored swine for 28 days after peripheral cannulation for VA-ECMO support. Adult male swine were subjected to coronary occlusion followed by reperfusion alone or VA-ECMO before reperfusion for 180 minutes. In a separate group, swine were treated with a cardioprotective agent before initiation of VA-ECMO with a 30-minute delay to reperfusion. After 28 days, we identified for the first time that compared to reperfusion alone, VA-ECMO increases infarct scar size and impairs LV function after AMI (FIGS. 5A and 5B). […] These findings support our central hypothesis that VA-ECMO promotes LV scar after AMI and further that treatment with a cardioprotective agent reduces LV scar size 30 days after AMI, which may have broad reaching implications for any patient with acute myocardial infarction or patients at risk of developing cardiac impairment while receiving VA-ECMO. Broad groups of patients may be treated using this approach including, e.g., all AMI patients and all patients treated with VA-ECMO. Indications include, for example, cardiogenic shock, heart failure, lung failure, myocarditis, trauma, and arrhythmia. […] (FIG. 6).

cardiolipin = assay: Mitochondrial cardiolipin in the infarct zone, swine IRI with ECMO / EC-Pella (FIGS. 9C-9D); type: in vivo; details: to a similar degree as pre-emptive ECPella
Procedure: Ischemia-reperfusion injury (IRI) was induced in adult swine via percutaneous occlusion of the left anterior descending artery (LAD) for 90 minutes, followed by activation of either ECMO alone for 30 minutes or EC-Pella for 45 minutes with persistent LAD occlusion. All groups underwent 180 minutes of reperfusion (n=4-6/group). To study whether the sequence of device activation impacts infarct size, we compared activation of ECMO alone for 30 minutes followed by simultaneous Impella CP for 15 minutes (Bailout EC-Pella) versus Impella CP activation for 30 minutes followed by simultaneous ECMO for 15 minutes (Pre-emptive EC-Pella) before reperfusion. LV hemodynamics and ventriculo-arterial (VA) coupling were assessed.
Compared to IRI and ECMO alone, EC-Pella decreased PVA when applied as pre-emptive ECPella but not Bailout ECPella (FIG. 7). Both EC-Pella configurations decreased infarct size (FIG. 8A), increased cardioprotective signaling via the reperfusion injury salvage kinase pathway (FIG. 8B), and reduced apoptosis and pro-apoptotic signaling (FIG. 8C). Pre-emptive, but not bailout, ECPella preserved mitochondrial […] tafazzin levels (FIGS. 9A-B), increased mitochondrial cardiolipin levels (FIG. 9C), and reduced the ratio of immature: mature cardiolipin (MLCL: CL ratio; FIG. 9D) within the infarct zone compared to ECMO alone.

[2] = system: anterior ST-segment elevation myocardial infarction; details: IV elamipretide given before reperfusion; cited from earlier work
[3] = system: ischemia-reperfusion injury (AMI, LAD occlusion); assay: Swine AMI model: intracoronary elamipretide before VA-ECMO, reperfusion delayed 30 minutes, then 180 minutes of reperfusion; type: in vivo
Procedure: To begin exploring whether stabilizing CL activity can limit myocardial infarct size during VA-ECMO support for AMI, we employed an over-the-wire coronary angioplasty balloon to delivery elamipretide into the area at risk while maintaining occlusion of the LAD. We treated adult male swine with a single IC injection of either elamipretide (0.05 ug/kg/minute IC over 10 minutes) or vehicle prior to initiating VA-ECMO and then delayed coronary reperfusion for 30 minutes, thereby allowing the drug to reach the area at risk and stabilize CL. Elamipretide was continued as an IV infusion (0.05 ug/kg/minute) during 180 minutes of reperfusion. […] Elamipretide dosing was based on prior reports (Kloner et al., J. Am. Heart Assoc. 1(3):e001644, 2012; Gibson et al., Eur. Heart J. 37(16):1296-1303, 2016).

[4] = elamipretide plus VA-ECMO, FIG. 4C

D-Arg-2′,6′-Dmt-Lys-Phe-NH2 [elamipretide]
infarct (LV) scar size [1]: reduced infarct scar size; also recorded: can limit LV scar size
mitochondrial cardiolipin levels in the infarct zone (cardiolipin; FIG. 9C): increases cardiolipin
mono-lysl cardiolipin: mature cardiolipin (MLCL:CL) ratio in the infarct zone (cardiolipin; FIG. 9D): reduces
infarct size in humans (EMBRACE-STEMI Trial) [2]: failed to reduce infarct size
reduction of infarct size compared to IRI plus VA-ECMO support ([3]; adult male swine, 0.05 ug/kg/minute IC over 10 minutes before VA-ECMO, reperfusion delayed 30 minutes, IV infusion during 180 minutes reperfusion, vs vehicle): 70%
reduction of infarct size compared to IRI alone ([3]; adult male swine, elamipretide IC before VA-ECMO, reperfusion delayed 30 minutes): 55%
infarct size compared to reperfusion without VA-ECMO (in words) ([3]; elamipretide before initiation of VA-ECMO): significantly reduces infarct size
MLCL:CL ratio in the infarct zone ([3]; elamipretide plus VA-ECMO, FIG. 4B): decreased
H202 levels in the infarct zone [3, 4]: decreased
mitochondrial protease activity in the infarct zone [3, 4]: decreased
ETC complex function ([3]; elamipretide plus VA-ECMO, FIG. 4E): improved ETC complex function
infarct size compared to IRI alone, elamipretide without VA-ECMO ([3]; elamipretide treatment without VA-ECMO, FIG. 4A): failed to reduce infarct size; also recorded: did not reduce infarct size
